# Measured values taken from US20070074295A1 (priority 2000, published 2007).
# Tested on: rats
# Assay: Effect of haloperidol and clozapine on PCP induced hypofunction: LCGU
# Assay type: in vivo, rat
# Conditions: day 29
# Description: The effect of antipsychotics on the positive symptoms is less well studied regarding imaging studies.
# [1] = i.p. PCP 2.58 mgkg^−1, minipump vehicle, clozapine 20 or haloperidol 1 mgkg^−1/day
# [2] = i.p. vehicle, minipump clozapine 20 or haloperidol 1 mgkg^−1/day
smiles,measurement,setting,value
CN1CCN(C2=Nc3cc(Cl)ccc3Nc3ccccc32)CC1 [clozapine],"LCGU, Au layer I",[1],140 ± 5 μmol/100 g/min
same,"LCGU, Au layers II, III&IV",[1],166 ± 6 μmol/100 g/min
same,"LCGU, Au layers V & VI",[1],118 ± 4 μmol/100 g/min
same,"LCGU, AuD layer I",[1],135 ± 5 μmol/100 g/min
same,"LCGU, AuD layers II, III&IV",[1],152 ± 6 μmol/100 g/min
same,"LCGU, AuD layers V & VI",[1],107 ± 4 μmol/100 g/min
same,"LCGU, CA1 molecular layer",[1],87 ± 2 μmol/100 g/min
same,"LCGU, CA1 pyramidal cell layer",[1],62 ± 2 μmol/100 g/min
same,"LCGU, CA1 stratum oriens",[1],57 ± 2 μmol/100 g/min
same,"LCGU, CA1 stratum radiatum",[1],66 ± 3 μmol/100 g/min
same,"LCGU, CA3 molecular layer",[1],84 ± 2 μmol/100 g/min
same,"LCGU, CA3 pyramidal cell layer",[1],69 ± 3 μmol/100 g/min
same,"LCGU, CA3 stratum oriens",[1],62 ± 1 μmol/100 g/min
same,"LCGU, CA3 stratum radiatum",[1],69 ± 2 μmol/100 g/min
same,"LCGU, DLL",[1],108 ± 5 μmol/100 g/min
same,"LCGU, MD",[1],113 ± 3 μmol/100 g/min
same,"LCGU, PrL layer I",[1],118 ± 6 μmol/100 g/min
same,"LCGU, PrL layers II & III",[1],134 ± 7 μmol/100 g/min
same,"LCGU, PrL layers V & VI",[1],104 ± 5 μmol/100 g/min
same,"LCGU, Rt",[1],81 ± 2 μmol/100 g/min
same,"LCGU, VLL",[1],118 ± 5 μmol/100 g/min
same,"LCGU, cochlear nucleus",[1],119 ± 8 μmol/100 g/min
same,"LCGU, mO layer I",[1],104 ± 5 μmol/100 g/min
same,"LCGU, mO layers II & III",[1],112 ± 6 μmol/100 g/min
same,"LCGU, mO layers V & VI",[1],115 ± 5 μmol/100 g/min
same,"LCGU, Au layer I",[2],136 ± 6 μmol/100 g/min
same,"LCGU, Au layers II, III&IV",[2],169 ± 6 μmol/100 g/min
same,"LCGU, Au layers V & VI",[2],126 ± 4 μmol/100 g/min
same,"LCGU, AuD layer I",[2],136 ± 4 μmol/100 g/min
same,"LCGU, AuD layers II, III&IV",[2],154 ± 5 μmol/100 g/min
same,"LCGU, AuD layers V & VI",[2],115 ± 6 μmol/100 g/min
same,"LCGU, CA1 molecular layer",[2],102 ± 5 μmol/100 g/min
same,"LCGU, CA1 pyramidal cell layer",[2],78 ± 4 μmol/100 g/min
same,"LCGU, CA1 stratum oriens",[2],72 ± 4 μmol/100 g/min
same,"LCGU, CA1 stratum radiatum",[2],80 ± 4 μmol/100 g/min
same,"LCGU, CA3 molecular layer",[2],96 ± 4 μmol/100 g/min
same,"LCGU, CA3 pyramidal cell layer",[2],81 ± 4 μmol/100 g/min
same,"LCGU, CA3 stratum oriens",[2],74 ± 4 μmol/100 g/min
same,"LCGU, CA3 stratum radiatum",[2],83 ± 5 μmol/100 g/min
same,"LCGU, DLL",[2],99 ± 5 μmol/100 g/min
same,"LCGU, MD",[2],124 ± 6 μmol/100 g/min
same,"LCGU, PrL layer I",[2],119 ± 4 μmol/100 g/min
same,"LCGU, PrL layers II & III",[2],139 ± 5 μmol/100 g/min
same,"LCGU, PrL layers V & VI",[2],98 ± 4 μmol/100 g/min
same,"LCGU, Rt",[2],95 ± 4 μmol/100 g/min
same,"LCGU, VLL",[2],109 ± 5 μmol/100 g/min
same,"LCGU, cochlear nucleus",[2],108 ± 7 μmol/100 g/min
same,"LCGU, mO layer I",[2],93 ± 4 μmol/100 g/min
same,"LCGU, mO layers II & III",[2],109 ± 4 μmol/100 g/min
same,"LCGU, mO layers V & VI",[2],106 ± 5 μmol/100 g/min
